In patent publication US11858934B1, “Substituted pyrido[4′,3′:5,6]pyrimido[1,2-a]indoles as CK2 inhibitors” (KING FAISAL UNIVERSITY, priority 2023, dated 2024) one finds IC50 data, which are given here for one compound.

pIC50: −log10 of the molar value.

Test [1] deals with HL60 (leukemia). Kind of test: MTT in vitro cytotoxic activity assay, HL60. In kind it is cell-based. The note with it: Homo sapiens, HL-60; HL60 (leukemia) cells, exposed for 96 hours; read-out: IC50, 50% inhibition of cell proliferation. As to the method:
(§1) Compounds 1-12 were screened for their in vitro cytotoxic activity utilizing a 3-(4,5-dimethyl-thiazol-2-yl)-2,5-diphenyltetrazolium bromide (MTT) assay against selected cancer human cell lines consisting of PC3 (prostate), HCT116 (colon), A375 (melanoma), H1299 (lung), MIAPaCa-2 (pancreas), HL60 (leukemia), MCF7 (breast), MDA-MB-231 (breast) (T. Mosmann, J. Immunol. Meth., 1983, 65, 55-63). The cells were cultured at 37° C. in RMPI1640 medium supplemented with 10% fetal bovine serum, 50 IU/mL penicillin, and 50 μg/mL streptomycin in a 5% CO2 incubator. All cells were sub-cultured 3 times/week by trypsinisation. Viable cells were seeded and allowed to adhere for 12 h before a test drug was added in 96-well plates at an initial density of 1.0×10^5 cells/mL. Tumour cell lines were separately exposed to various concentrations of the tested compounds followed by incubation at a temperature of 37° C. during 96 h inside a medium of fresh RMPI 1640. Cells were subsequently incubated at 37° C. using MTT at 0.5 mg/mL during 4 h. After removal of supernatant, formazan crystals were dissolved in isopropanol and the optical density was measured at 570 nm. CX-4945 was used as a positive control.

Test [2] has as its system MIAPaCa-2 (pancreas). Kind of test: MTT in vitro cytotoxic activity assay, MIAPaCa-2. In kind it is cell-based. To be noted: Homo sapiens, MIA PaCa-2; MIAPaCa-2 (pancreas) cells, exposed for 96 hours; read-out: IC50, 50% inhibition of cell proliferation. As to the method:
as §1

Test [3] concerns the target T1, recombinant human CK2 (Homo sapiens, UniProt P68400).
T1 construct: purchased Millipore
Kind of test: CK2 kinase assay (33P-ATP, substrate peptide RRRDDDSDDD). In kind it is biochemical. The note with it: final ATP concentration 15 μM, 10 min at 30° C; read-out: IC50, protein kinase CK2 activity. The protocol: CK2 Kinase Assay was conducted using the protocol as described in Pierre F. et al; J. Med. Chem. 2011, 54, 635-654. The tested compounds in aqueous solution were added at a volume of 10 μL to a reaction mixture comprising 10 μL of assay dilution buffer (ADB; 20 mM MOPS, pH 7.2, 25 mM (β-glycerol phosphate, 5 mM EGTA, 1 mM sodium orthovanadate, and 1 mM dithiothreitol), 10 μL of substrate peptide (RRRDDDSDDD, dissolved in ADB at a concentration of 1 mM), 10 μL of recombinant human CK2 (RRfββ-holoenzyme, 25 ng dissolved in ADB; Millipore). Reactions were initiated by the addition of 10 μL of ATP solution (90% 75 mMMgCl2, 75 μM ATP (final ATP concentration: 15 μM) dissolved in ADB; 10% [γ-33P] ATP (stock 1 mCi/100 μL; 3000 Ci/mmol (Perkin-Elmer) and maintained for 10 min at 30° C. The reactions were quenched with 100 μL of 0.75% phosphoric acid and then transferred to and filtered through a phosphor cellulose filter plate (Millipore). After washing each well five times with 0.75% phosphoric acid, the plate was dried under vacuum for 5 min and, following the addition of 15 μL of scintillation fluid to each well, the residual radioactivity was measured using a Wallac luminescence counter. The IC50 values were derived from eight concentrations of test inhibitors.

The subject of test [4] is PC3 (prostate). Kind of test: MTT in vitro cytotoxic activity assay, PC3. The note with it: Homo sapiens, Prostate cell; PC3 (prostate) cells, exposed for 96 hours; read-out: IC50, 50% inhibition of cell proliferation. Format: cell-based. The protocol: as §1
Test [5] relates to MCF7 (breast). Kind of test: MTT in vitro cytotoxic activity assay, MCF7. In kind it is cell-based. The note with it: Homo sapiens; MCF7 (breast) cells, exposed for 96 hours; read-out: IC50, 50% inhibition of cell proliferation. As to the method:
as §1

Test [6] deals with MDA-MB-231 (breast). Kind of test: MTT in vitro cytotoxic activity assay, MDA-MB-231. Format: cell-based. The note with it: Homo sapiens; MDA-MB-231 (breast) cells, exposed for 96 hours; read-out: IC50, 50% inhibition of cell proliferation. The protocol:
as §1

Test [7] concerns H1299 (lung). Kind of test: MTT in vitro cytotoxic activity assay, H1299. In kind it is cell-based. The note with it: Homo sapiens, NCI-H1299; H1299 (lung) cells, exposed for 96 hours; read-out: IC50, 50% inhibition of cell proliferation. As to the method: as §1
Test [8] deals with A375 (melanoma). Kind of test: MTT in vitro cytotoxic activity assay, A375. In kind it is cell-based. The note with it: Homo sapiens, A-375; A375 (melanoma) cells, exposed for 96 hours; read-out: IC50, 50% inhibition of cell proliferation. As to the method: as §1
In test [9] the test system is HCT116 (colon). Kind of test: MTT in vitro cytotoxic activity assay, HCT116. To be noted: Homo sapiens, HCT-116; HCT116 (colon) cells, exposed for 96 hours; read-out: IC50, 50% inhibition of cell proliferation. Format: cell-based. The protocol: as §1

T1 sequence (P68400 whole entry): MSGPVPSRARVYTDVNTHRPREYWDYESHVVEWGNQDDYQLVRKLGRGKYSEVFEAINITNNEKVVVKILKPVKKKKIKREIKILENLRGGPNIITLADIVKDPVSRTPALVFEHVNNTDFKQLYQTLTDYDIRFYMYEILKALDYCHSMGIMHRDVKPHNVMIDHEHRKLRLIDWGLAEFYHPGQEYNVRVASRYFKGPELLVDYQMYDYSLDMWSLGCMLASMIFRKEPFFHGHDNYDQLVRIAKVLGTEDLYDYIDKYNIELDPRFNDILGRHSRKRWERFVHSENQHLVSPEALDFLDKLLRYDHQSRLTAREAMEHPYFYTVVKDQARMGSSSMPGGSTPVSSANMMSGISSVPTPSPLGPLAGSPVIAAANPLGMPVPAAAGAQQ
T1 sequence (P67870 whole entry partner): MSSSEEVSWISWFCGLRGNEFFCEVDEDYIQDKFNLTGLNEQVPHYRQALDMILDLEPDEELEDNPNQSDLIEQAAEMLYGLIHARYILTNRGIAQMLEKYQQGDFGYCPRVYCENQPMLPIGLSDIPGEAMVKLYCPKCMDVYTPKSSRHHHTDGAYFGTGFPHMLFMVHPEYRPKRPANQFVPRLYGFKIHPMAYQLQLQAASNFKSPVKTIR

As to `O=C(O)c1ccc2c(c1)cc1nc(Nc3cccc(Cl)c3)c3ccncc3n12` [Compound 1, 5-((3-chlorophenyl)amino)pyrido[4′,3′:5,6]pyrimido[1,2-a]indole-9-carboxylic acid], the pIC50 in test [1] is 5.48; in test [2], 5.85; in test [3], 7.82; in test [4] it was 5.66; in test [5], 5.16; in test [6], 5.26. Moreover, the pIC50 in test [7] was 5.72; in [8], 5.46; in [9] it was 5.74.
